± gives the expanded uncertainty stated by the source.
Key:
[1] = wn = mass fraction of the nth substance listed; details: 101 kPa, Liquid, w1 = 0.009; for viscosity: Capillary tube (Ostwald / Ubbelohde) method; for mass density: Vibrating tube method
[2] = 101 kPa, Liquid, Capillary tube (Ostwald / Ubbelohde) method
[3] = mn = molality of the nth substance listed, in mol/kg; details: 101 kPa, Liquid, m2 = 0; for viscosity: Capillary tube (Ostwald / Ubbelohde) method; for mass density: Vibrating tube method

[Cl-].[Na+] [sodium chloride] + O
[1]
Details | mass density [kg/m3] | viscosity [mPa·s]
278.15 K | 1006.09 ± 0.27 | 1.53 ± 0.015
283.15 K | 1005.64 ± 0.27 | 1.321 ± 0.013
288.15 K | 1005.07 ± 0.28 | 1.154 ± 0.011
293.15 K | 1004.14 ± 0.27 | 1.015 ± 0.0098
298.15 K | 1002.96 ± 0.27 | 0.9068 ± 0.0086
303.15 K | 1001.47 ± 0.27 | 0.8105 ± 0.0077
308.15 K | 999.75 ± 0.27 | 0.7363 ± 0.007
313.15 K | 997.82 ± 0.26 | 0.6641 ± 0.0065

O [water]
[2]
Details | viscosity [mPa·s]
278.15 K | 1.521 ± 0.014
283.15 K | 1.307 ± 0.013
288.15 K | 1.135 ± 0.011
293.15 K | 1.002 ± 0.0094
298.15 K | 0.8903 ± 0.0083
303.15 K | 0.7977 ± 0.0074
308.15 K | 0.719 ± 0.0067
313.15 K | 0.6532 ± 0.0062

O [water] + CO/N=C(\C(=O)N[C@@H]1C(=O)N2C(C(=O)[O-])=C(CSc3nc(C)c(CC(=O)[O-])s3)CS[C@H]12)c1csc(N)n1.[Na+].[Na+]
[3]
Details | mass density [kg/m3] | viscosity [mPa·s]
278.15 K | 999.96 ± 0.24 | 1.521 ± 0.014
283.15 K | 999.7 ± 0.25 | 1.307 ± 0.013
288.15 K | – | 1.135 ± 0.011
293.15 K | – | 1.002 ± 0.0094
298.15 K | – | 0.8903 ± 0.0083
303.15 K | – | 0.7977 ± 0.0074
308.15 K | – | 0.719 ± 0.0067
313.15 K | – | 0.6532 ± 0.0062

Source: the NIST ThermoML archive (doi:10.1016/j.tca.2013.06.031)
